Assay results: article PMC3983011 (2014)
Each block holds one compound with its values, some of them ahead of it.

Key:
Conditions in all cases: 150 mM NaCl, 5 mM MgCl2; 10 mM HEPES, pH 7.4, 25 °C; immobilised aptamer
[1] = system: 35FMN-2 flavin mononucleotide aptamer (RNA, aptamer) GGGCGUGUAGGAUAUCGUGUUCGAGAAGGACACGCCCCCCAAAAAAAAAAAAAAAAAAAAAAAA; experiment: SPR, steady-state affinity fit
[2] = system: 35FMN-2 flavin mononucleotide aptamer (RNA, aptamer) GGGCGUGUAGGAUAUCGUGUUCGAGAAGGACACGCCCCCCAAAAAAAAAAAAAAAAAAAAAAAA; experiment: SPR kinetics, kd/ka, 1:1 fit
[3] = system: DH25.42 ATP aptamer (DNA, aptamer) CCTGGGGGAGTATTGCGGAGGAAGGAAAAAAAAAAAAAAAAAAAAAAAA; experiment: SPR, steady-state affinity fit
[4] = system: minimal thiM TPP riboswitch (RNA, riboswitch) GGGACUCGGGGUGCCCUUCUGCGUGAAGGCUGAGAAAUACCCGUAUCACCUGAUCUGGAUAAUGCCAGCGUAGGGAAGUCCCCCAAAAAAAAAAAAAAAAAAAAAAAA; experiment: SPR kinetics, kd/ka, 1:1 fit
[5] = system: c-di-GMP class II riboswitch (RNA, riboswitch) GGGUAUUUAUAGAAACUGUGAAGUAUAUCUUAAACCUGGGCACUUAAAAGAUAUAUGGAGUUAGUAGUGCAACCUGCUAUAAAUACCCCAAAAAAAAAAAAAAAAAAAAAAAA; experiment: SPR, steady-state affinity fit
[6] = system: c-di-GMP class II riboswitch (RNA, riboswitch) GGGUAUUUAUAGAAACUGUGAAGUAUAUCUUAAACCUGGGCACUUAAAAGAUAUAUGGAGUUAGUAGUGCAACCUGCUAUAAAUACCCCAAAAAAAAAAAAAAAAAAAAAAAA; experiment: SPR kinetics, kd/ka, 1:1 fit
[7] = system: 44.Cit11 citrulline aptamer (RNA, aptamer) GGGACGAGAAGGAGUGCUGGUUAUACUAGCGGUUAGGUCACUCGUCCCCCAAAAAAAAAAAAAAAAAAAAAAAA; experiment: SPR, steady-state affinity fit
[8] = system: TCT8-4 theophylline aptamer (RNA, aptamer) GGGAAGUGAUACCAGCAUCGUCUUGAUGCCCUUGGCAGCACUUCCCCCAAAAAAAAAAAAAAAAAAAAAAAA; experiment: SPR kinetics, kd/ka, 1:1 fit
[9] = system: TCT8-4 theophylline aptamer (RNA, aptamer) GGGAAGUGAUACCAGCAUCGUCUUGAUGCCCUUGGCAGCACUUCCCCCAAAAAAAAAAAAAAAAAAAAAAAA; experiment: SPR, steady-state affinity fit
[10] = system: minimal MG-4 malachite green aptamer (RNA, aptamer) GGGAUCCCGACUGGCGAGAGCCAGGUAACGAAUGGAUCCCCCCAAAAAAAAAAAAAAAAAAAAAAAA; experiment: SPR kinetics, kd/ka, 1:1 fit
[11] = system: minimal MG-4 malachite green aptamer (RNA, aptamer) GGGAUCCCGACUGGCGAGAGCCAGGUAACGAAUGGAUCCCCCCAAAAAAAAAAAAAAAAAAAAAAAA; experiment: SPR, steady-state affinity fit
[12] = system: minimal Tyr 1 tyrosine aptamer (RNA, aptamer) GGGGGCAGUCAACUCGUAAGAUGGCCUUACAGCGGUCAAUACGGGGGUCAUCAGAUAGGGAGGCCCCCCAAAAAAAAAAAAAAAAAAAAAAAA; experiment: SPR, steady-state affinity fit
[13] = system: 44.Arg11 arginine aptamer (RNA, aptamer) GGGACGAGAAGGAGCGCUGGUUAUACUAGCAGGUAGGUCACUCGUCCCCCAAAAAAAAAAAAAAAAAAAAAAAA; experiment: SPR, steady-state affinity fit

SMILES: Cc1cc2nc3c(=O)[nH]c(=O)nc-3n(C[C@H](O)[C@H](O)[C@H](O)COP(=O)(O)O)c2cc1C
KD,equilibrium [1]: 710 ± 20 nM | KD,kinetic [2]: 1100 ± 400 nM

SMILES: Nc1ncnc2c1ncn2[C@@H]1O[C@H](COP(=O)(O)OP(=O)(O)OP(=O)(O)O)[C@@H](O)[C@H]1O
KD,equilibrium [3]: 8800 ± 3000 nM

SMILES: Nc1nc2c(ncn2[C@@H]2O[C@@H]3COP(=O)(O)O[C@H]4[C@@H](O)[C@H](n5cnc6c(=O)[nH]c(N)nc65)O[C@@H]4COP(=O)(O)O[C@H]3[C@H]2O)c(=O)[nH]1
KD,equilibrium [5]: 120 ± 20 nM | KD,kinetic [6]: 60 ± 31 nM

SMILES: Cn1c(=O)c2[nH]cnc2n(C)c1=O
KD,kinetic [8]: 430 ± 40 nM | KD,equilibrium [9]: 340 ± 20 nM

SMILES: CN(C)c1ccc(C(=C2C=CC(=[N+](C)C)C=C2)c2ccccc2)cc1
KD,kinetic [10]: 950 ± 340 nM | KD,equilibrium [11]: 2000 ± 100 nM

The next lines start with the values.

KD,kinetic [4]: 0.89 ± 0.8 nM
SMILES: Cc1ncc(C[n+]2csc(CCOP(=O)(O)OP(=O)(O)O)c2C)c(N)n1

KD,equilibrium [7]: 31000 ± 1000 nM
SMILES: NC(=O)NCCC[C@H](N)C(=O)O

KD,equilibrium [12]: 17000 ± 6000 nM
SMILES: N[C@@H](Cc1ccc(O)cc1)C(=O)O

KD,equilibrium [13]: 140000 ± 40000 nM
SMILES: N=C(N)NCCC[C@H](N)C(=O)O
